Source: patent US11028090B2 (Dong Wha Pharm. Co., Ltd., priority 2017, dated 2021)
Counter-ions that a name gives are not always drawn. Like-named read-outs stand apart in the source and are kept apart here.

Key:
[1] = biological target: BRD4 (BD1+BD2) bromodomain (Homo sapiens (Human), UniProt O60885); assay: BRD4 binding inhibition (AlphaScreen, GST-BRD4 vs tetraacetylated histone H4 peptide)
Outline: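 GST-BRD4 (BD1+BD2) and biotinylated tetraacetyl-histone H4 peptide, each at 100 nM in HEPES pH 7.4 buffer with BSA and DTT, were combined with compound. Glutathione acceptor and streptavidin donor beads were added, then incubated 30 min at room temperature in the dark. Read-out was AlphaScreen signal.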

[2] = test system: acute myelogenous leukemia cells (MV-4-11 cells); assay: Cytotoxicity to acute myelogenous leukemia cells (MV-4-11 cells), CCK-8; conditions: Homo sapiens, MV4-11, 72 h
[3] = GST-BRD4 (BD1+BD2) / biotinylated acetyl-histone H4 (Lys5,8,12,16) peptide, read-out: IC50, BRD4 binding inhibition
[4] = GST-BRD4 (BD1+BD2) vs biotinylated acetyl-histone H4 peptide, AlphaScreen, read-out: BRD4 IC50
[5] = read-out: MV-4-11 Cytotoxicity IC50
[6] = read-out: IC50, cytotoxicity against acute myelogenous leukemia cells

| SMILES | IC50 [1, 3] | IC50 [1, 4] | IC50 [2, 5] | IC50 [2, 6] |
| --- | --- | --- | --- | --- |
| COc1cc2nc(NCCCCNC(=O)CC(C)C)c3nnc(C)n3c2cc1C(F)(F)F [Example 476, N-[4-(7-methoxy-1-methyl-8-trifluoromethyl-[1,2,4]triazolo[4,3-a]quinoxaline-4-ylamino)-butyl]-3-methyl-butyramide] | ≤ 50 nM | 34 nM | 480 nM |  |
| COc1cc2nc(NCCCCNC(=O)[C@@H](O)C(C)C)c3nnc(C)n3c2cc1C(F)(F)F [Example 479, 2-(S)-hydroxy-N-[4-(7-methoxy-1-methyl-8-trifluoromethyl-[1,2,4]triazolo[4,3-a]quinoxaline-4-ylamino)-butyl]-3-methyl-butyramide] | ≤ 10 nM | 5 nM | 240 nM |  |
| COc1cc2nc(NCCCCNC(=O)Cc3cccs3)c3nnc(C)n3c2cc1C(F)(F)F [Example 480, N-[4-(7-methoxy-1-methyl-8-trifluoromethyl-[1,2,4]triazolo[4,3-a]quinoxaline-4-ylamino)-butyl]-2-thiophene-2-yl-acetamide] | ≤ 10 nM | 9 nM | 80 nM | ≤ 200 nM |
| Cc1nnc2c(NCCCCNC(=O)OC(C)(C)C)nc3cc(-n4ccnc4)ccc3n12 [Example 490, [4-(7-imidazole-1-yl-1-methyl-[1,2,4]triazolo[4,3-a]quinoxaline-4-ylamino)-butyl]-carbamic acid-tert-butylester] | ≤ 10 nM | 9 nM | 190 nM | ≤ 200 nM |
| Cc1nnc2c(NCCCCNC(=O)CC(C)C)nc3cc(-n4ccnc4)ccc3n12 [Example 492, N-[4-(7-imidazole-1-yl-1-methyl-[1,2,4]triazolo[4,3-a]quinoxaline-4-ylamino)-butyl]-3-methyl-butyramide] | ≤ 50 nM | 13 nM | 80 nM | ≤ 200 nM |
| Cc1nnc2c(NCCCCNC(=O)OCC(C)C)nc3cc(-n4ccnc4)ccc3n12 [Example 493] | ≤ 10 nM | 5 nM | 48 nM | ≤ 200 nM |
| Cc1nnc2c(NCCCCNC(=O)OC(C)C)nc3cc(-n4ccnc4)ccc3n12 [Example 494, [4-(7-imidazole-1-yl-1-methyl-[1,2,4]triazolo[4,3-a]quinoxaline-4-ylamino)-butyl]-carbamic acid isopropylester] | ≤ 50 nM | 14 nM | 110 nM | ≤ 200 nM |
| CCC(C)CC(=O)NCCCCNc1nc2cc(-n3ccnc3)ccc2n2c(C)nnc12 (stereo not drawn) [Example 495, 3-methyl-pentanoic acid-[4-(7-imidazole-1-yl-1-methyl-[1,2,4]triazolo[4,3-a]quinoxaline-4-ylamino)-butyl]-amide] | ≤ 50 nM | 12 nM | 29 nM | ≤ 200 nM |
| Cc1nnc2c(NCCCCNC(=O)Cc3cccs3)nc3cc(-n4ccnc4)ccc3n12 [Example 496, N-[4-(7-imidazole-1-yl-1-methyl-[1,2,4]triazolo[4,3-a]quinoxaline-4-ylamino)-butyl]-2-thiophene-2-yl-acetamide] | ≤ 10 nM | 10 nM | 20 nM | ≤ 200 nM |
| Cc1nnc2c(NCCCCNC(=O)OC(C)(C)C)nc3cc(N4CCOCC4)ccc3n12 [Example 497, [4-(1-methyl-7-morpholine-4-yl-[1,2,4]triazolo[4,3-a]quinoxaline-4-ylamino)-butyl]-carbamic acid-tert-butylester] | ≤ 50 nM | 38 nM | 730 nM |  |
| Cc1nnc2c(NCCCCNC(=O)CC(C)C)nc3cc(N4CCOCC4)ccc3n12 [Example 499, 3-methyl-N-[4-(1-methyl-7-morpholine-4-yl-[1,2,4]triazolo[4,3-a]quinoxaline-4-ylamino)-butyl]-butyramide] | ≤ 10 nM | 10 nM | 140 nM | ≤ 200 nM |
| Cc1nnc2c(NCCCCNC(=O)[C@@H](F)C(C)C)nc3cc(N4CCOCC4)ccc3n12 [Example 500, 2-(S)-fluoro-3-methyl-N-[4-(1-methyl-7-morpholine-4-yl-[1,2,4]triazolo[4,3-a]quinoxaline-4-ylamino)-butyl]-butyramide] | ≤ 50 nM | 40 nM | 98 nM | ≤ 200 nM |
| CCC(C)CC(=O)NCCCCNc1nc2cc(N3CCOCC3)ccc2n2c(C)nnc12 (stereo not drawn) [Example 501, 3-methyl-pentanoic acid-[4-(1-methyl-7-morpholine-4-yl-[1,2,4]triazolo[4,3-a]quinoxaline-4-ylamino)-butyl]-amide] | ≤ 10 nM | 9 nM | 60 nM | ≤ 200 nM |
| Cc1nnc2c(NCCCCNC(=O)[C@@H](NC(=O)OC(C)(C)C)C(C)C)nc3cc(N4CCOCC4)ccc3n12 [Example 502, (S)-{2-methyl-1-[4-(1-methyl-7-morpholine-4-yl-[1,2,4]triazolo[4,3-a]quinoxaline-4-ylamino)-butylcarbamoyl]-propyl}-carbamic acid-tert-butylester] | ≤ 50 nM | 30 nM | 331 nM |  |
| Cc1nnc2c(NCCCCNC(=O)[C@@H](N)C(C)C)nc3cc(N4CCOCC4)ccc3n12 [Example 503, 2-(S)-amino-3-methyl-N-[4-(1-methyl-7-morpholine-4-yl-[1,2,4]triazolo[4,3-a]quinoxaline-4-ylamino)-butyl]-butyramide hydrochloride] |  | 63 nM | 575 nM |  |
| Cc1nnc2c(NCCCCNC(=O)[C@@H](NS(C)(=O)=O)C(C)C)nc3cc(N4CCOCC4)ccc3n12 [Example 505, 2-(S)-methanesulfonylamino-3-methyl-N-[4-(1-methyl-7-morphonyl-4-yl-[1,2,4]triazolo[4,3-a]quinoxaline-4-ylamino)-butyl]-butyramide] | ≤ 50 nM | 26 nM | 533 nM |  |
| Cc1nnc2c(NCCCCNC(=O)OC(C)C)nc3cc(N4CCOCC4)ccc3n12 [Example 506, [4-(1-methyl-7-morpholine-4-yl-[1,2,4]triazolo[4,3-a]quinoxaline-4-ylamino)-butyl]-carbamic acid isopropylester] | ≤ 50 nM | 15 nM | 340 nM |  |
| Cc1nnc2c(NCCCCNC(=O)Cc3cccs3)nc3cc(N4CCOCC4)ccc3n12 [Example 507, N-[4-(1-methyl-7-morpholine-4-yl-[1,2,4]triazolo[4,3-a]quinoxaline-4-ylamino)-butyl]-2-thiophene-2-yl-acetamide] | ≤ 50 nM | 11 nM | 21 nM | ≤ 200 nM |
| Cc1nnc2c(NCCCCNC(=O)OC(C)(C)C)nc3cc(N4C[C@@H](C)O[C@@H](C)C4)ccc3n12 [Example 508, {4-[7-(2,6-dimethyl-morphonyl-4-yl)-1-methyl-[1,2,4]triazolo[4,3-a]quinoxaline-4-ylamino]-butyl}-carbamic acid-tert-butylester] | ≤ 50 nM | 29 nM | 575 nM |  |
| Cc1nnc2c(NCCCCNC(=O)CC(C)C)nc3cc(N4C[C@@H](C)O[C@@H](C)C4)ccc3n12 [Example 510, N-{4-[7-(2,6-dimethyl-morpholine-4-yl)-1-methyl-[1,2,4]triazolo[4,3-a]quinoxaline-4-ylamino]-butyl}-3-methyl-butyramide] |  | 57 nM | 335 nM |  |
